{"source": "patent US20140296170A1", "about": "“PHARMACEUTICAL COMPOSITION FOR PREVENTION OR TREATMENT OF BONE DISEASES COMPRISING SPINASTEROL GLUCOSIDE DERIVATIVE” (Lifetree Biotech Co., Ltd., priority 2013, published 2014)", "key": {"[1]": {"tested_on": "cartilage of SD rats (osteoblast defected (OD) models)", "assay": "Cartilage regeneration in osteoblast defected (OD) models", "format": "in vivo", "settings": "1 mg/kg orally once every two days for 4 weeks", "procedure": "The cartilage regeneration activity of spinasterol glucoside derivatives were evaluated in osteoblast defected (OD) models which were widely used in study on the regeneration of degenerative articular cartilage. The cartilage of SD rats, at least 9 weeks of age, was destroyed by a […] drill, followed by suturing the muscle and lipid tissues so as to allow them to go about normal daily life. Then, 3-o-β-D-glucopyranosyl-spinasterol dissolved in distilled water was orally administered at a dose of 1 mg/kg once every two days for 4 weeks. Afterwards, the animals were sacrificed, and opened around the knee to take articular cartilage tissues, followed by decalcification for 4 weeks. The cartilage tissues thus softened were paraffinized, and dyed with Safran O solution to visualize the regeneration of the cartilage."}, "[2]": {"tested_on": "collagen-induced arthritis in DBA1/J mice", "assay": "Collagen-induced arthritis model in DBA1/J mice", "format": "in vivo", "settings": "FIG. 1"}}}
{"smiles": "CC[C@H](/C=C/[C@@H](C)[C@H]1CC[C@H]2C3=CC[C@H]4C[C@@H](O[C@@H]5O[C@H](CO)[C@@H](O)[C@H](O)[C@H]5O)CC[C@]4(C)[C@H]3CC[C@]12C)C(C)C", "note": "[3-o-β-D-glucopyranosyl-spinasterol]", "values": [{"measurement": "levels of chondrocytes", "setting": "[1]; SD rats OD model", "value": "greatly increased levels"}, {"measurement": "levels of mast cells", "setting": "[1]; SD rats OD model", "value": "greatly increased levels"}, {"measurement": "levels of mucin", "setting": "[1]; SD rats OD model", "value": "greatly increased levels"}, {"measurement": "regeneration of cartilage tissues (Safran O staining)", "setting": "[1]; SD rats, cartilage destroyed by drill, compared to the control (b), FIG. 2", "value": "significant regeneration of cartilage tissues"}, {"measurement": "degree of collagen-induced arthritis (clinical severity by paw swelling, verified by micro-CT morphometry)", "setting": "[2]; CII/CFA immunization, 10 μM/kg of weight three times a week for 28 days, observed 42 days later, compared to the positive control (CIA)", "value": "reduced in the degree of collagen-induced arthritis"}, {"measurement": "regeneration of cartilage at the worn joint", "setting": "[2]; collagen-induced arthritis, 10 μM/kg three times a week for 28 days", "value": "showed regeneration of cartilage at the worn joint"}]}
